Source: ChEMBL document CHEMBL3098115, “Drug discovery considerations in the development of covalent inhibitors” (2014)

How the values were obtained:
Format in all cases: functional
Mus musculus [1] = assay: Ex vivo inhibition of CE6 in C57BL/6 mouse liver at 1 mg/kg, ip after 1 hr relative to vehicle-treated control; conditions: C57BL/6, Liver, route intraperitoneal
Mus musculus [2] = assay: Ex vivo inhibition of EST31 in C57BL/6 mouse liver at 1 mg/kg, ip after 1 hr relative to vehicle-treated control; conditions: C57BL/6, Liver, route intraperitoneal
Mus musculus [3] = assay: Ex vivo inhibition of EST31 in C57BL/6 mouse kidney at 1 mg/kg, ip after 1 hr relative to vehicle-treated control; conditions: C57BL/6, Kidney, route intraperitoneal
Mus musculus [4] = assay: Ex vivo inhibition of CE6 in C57BL/6 mouse kidney at 1 mg/kg, ip after 1 hr relative to vehicle-treated control; conditions: C57BL/6, Kidney, route intraperitoneal

Measured: inhibition in vivo at 1 mg/kg

C#CCCCCCCCCCNC(=O)Oc1cccc(-c2cccc(C(N)=O)c2)c1
< 20%: all assays above
